For 24 molecules, IC50 results are on record in patent US8420675B2, “Aminotetrahydroindazoloacetic acids” (Hoffmann-La Roche Inc., priority 2008, dated 2013).

The target of this experiment is T1, human CRTH2 (Homo sapiens, UniProt Q9Y5Y4).
T1 construct: expressed in transfected cells
T1 sequence (Q9Y5Y4 1-395): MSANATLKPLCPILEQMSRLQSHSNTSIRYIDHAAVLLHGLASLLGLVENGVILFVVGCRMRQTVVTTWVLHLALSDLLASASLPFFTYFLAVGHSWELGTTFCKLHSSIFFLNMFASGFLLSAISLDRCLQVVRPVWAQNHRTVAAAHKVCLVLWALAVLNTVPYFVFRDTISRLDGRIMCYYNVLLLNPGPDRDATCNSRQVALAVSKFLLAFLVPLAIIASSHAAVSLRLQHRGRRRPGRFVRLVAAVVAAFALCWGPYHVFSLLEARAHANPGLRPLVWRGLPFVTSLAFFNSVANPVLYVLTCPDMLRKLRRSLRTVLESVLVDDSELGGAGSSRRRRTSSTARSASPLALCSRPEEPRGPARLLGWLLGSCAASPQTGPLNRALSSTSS
Put plainly: Human CRTH2 Receptor Binding Assay (whole cell, [3H]ramatroban competition). The conditions noted are these: CHO-K1 cells expressing human CRTH2 and G-alpha16; 20 nM [3H]ramatroban; 1 hour, room temperature. An excerpt: A whole cell receptor binding assay using [^3H]ramatroban as the competing radioactive ligand was employed to evaluate the compound binding activity to human CRTH2. The radioactive ligand [^3H]ramatroban was synthesized according to Sugimoto et. al. (Eur. J. Pharmacol. 524, 30-37, 2005) to a specific activity of 42 Ci/mmol.
A cell line stably expressing human CRTH2 was established by transfecting CHO-K1 cells with two mammalian expression vectors that harbored human CRTH2 and G-alpha16 cDNAs, respectively, using FuGene® 6 transfection reagent (from Roche). Stable clones expressing CRTH2 were selected by staining each clone with BM16 (BD Pharmingen™ from BD Biosciences, a division of Becton, Dickinson and Company), which is a rat monoclonal antibody to human CRTH2. The cells were maintained as monolayer cultures in Ham's F-12 medium containing 10% fetal bovine serum, 100 units/mL penicillin, 100 μg/mL streptomycin, 2 mM glutamine, 0.5 mg/mL G418 (geneticin) for CRTH2, and 0.2 mg/mL hygromycin-B (for G-alpha 16). For whole cell receptor binding assay, the monolayer cells were rinsed once with PBS (phosphate buffered saline), dissociated using ethylenediaminetetraacetate (Versene™ EDTA Lonza Inc.), and suspended in PBS containing 10 mM MgCl2 and 0.06% BSA (bovine serum albumin) at 1.5×10^6 cells/mL.
The binding reactions (0.2 mL) were performed in 96-well plates at room temperature in PBS containing 1.5×10^5 cells, 10 mM MgCl2, 0.06% BSA, 20 nM [^3H]ramatroban, and test compound at various concentrations. After 1 hour of binding reactions, the cells were harvested on GF™/B filter microplates (microtiter plates with embedded glass fiber from PerkinElmer, Inc.) and washed 5 times with PBS using a Filtermate™ Harvester (a cell harvester that harvests and washes cells from microplates from PerkinElmer, Inc.). The radioactivities bound to the cells were determined using a microplate scintillation counter (TopCount® NXT, from PerkinElmer, Inc.) after adding 50 μL of Microscint™ 20 scintillation fluid (from PerkinElmer, Inc.) to each well of the filter plates. The radioactivity from non-specific binding was determined by replacing compound with 10 μM of 15(R)-15-methyl PGD2 (from Cayman Chemical Company) in the reaction mixtures. The radioactivity bound to the cells in the absence of compound (total binding) was determined by replacing compound with 0.25% of DMSO (dimethyl sulfoxide) in the reaction mixture. Specific binding data were obtained by subtracting the radioactivity of non-specific binding from each binding data.
The IC50 value is defined as the concentration of the tested compound that is required for 50% inhibition of total specific binding. In order to calculate the IC50 value, the percent inhibition data were determined for 7 concentrations for each compound. The percent inhibition for a compound at each concentration was calculated according to the following formula, [1-(specific binding in the presence of compound)/(total specific binding)]x100. The IC50 value was then obtained by fitting the percent inhibition data to a sigmoidal dose-response (4 parameter logistic) model in the XLfit® software Excel add-in program [from ID Business Solutions Ltd., model 205, where F(x)=(A+(B−A)/(1+((C/x)^D)))].

Molecules are shown by their SMILES.

Broadly, the IC50 is the concentration at which inhibition is half-maximal. For `CN([C@@H]1CCCc2c1cnn2CC(=O)O)S(=O)(=O)c1ccc(Oc2ccc(C(C)(C)C)cc2)c(Cl)c1` [Example 9-7a, ((R)-4-{[4-(4-tert-Butyl-phenoxy)-3-chloro-benzenesulfonyl]-methyl-amino}-4,5,6,7-tetrahydro-indazol-1-yl)-acetic acid], the IC50 came out at 12.6 nM. This lies in the double-digit nanomolar range.

In the case of `O=C(O)Cn1ncc2c1CCCC2NS(=O)(=O)c1ccc(-c2cccc([N+](=O)[O-])c2)cc1` (stereo not drawn) [Example 10-23a, [4-(3′-Nitro-biphenyl-4-sulfonylamino)-4,5,6,7-tetrahydro-indazol-1-yl]-acetic acid], the IC50 came to 238 nM.

The molecule `CN([C@@H]1CCCc2c1cnn2CC(=O)O)S(=O)(=O)c1ccc(Oc2ccc(Cl)cc2)c(F)c1` [Example 9-12a, ((R)-4-{[4-(4-Chloro-phenoxy)-3-fluoro-benzenesulfonyl]-methyl-amino}-4,5,6,7-tetrahydro-indazol-1-yl)-acetic acid] showed an IC50 of 7.4 nM. Against the preceding molecule, the IC50 is about 32-fold lower.

In turn, `O=C(O)Cn1ncc2c1CCCC2NS(=O)(=O)c1ccc(-c2ccccc2Cl)cc1` (stereo not drawn) [Example 10-4a, [4-(2′-Chloro-biphenyl-4-sulfonylamino)-4,5,6,7-tetrahydro-indazol-1-yl]-acetic acid] had an IC50 of 257 nM. Compared with the last molecule, the IC50 is about 35-fold higher.

For the molecule `CN([C@@H]1CCCc2c1cnn2CC(=O)O)S(=O)(=O)c1ccc(Oc2ccc(Cl)cc2Cl)c(Cl)c1` [Example 9-6a, ((R)-4-{[3-Chloro-4-(2,4-dichloro-phenoxy)-benzenesulfonyl]-methyl-amino}-4,5,6,7-tetrahydro-indazol-1-yl)-acetic acid], the IC50 stood at 21.7 nM.

Regarding `Cc1ccccc1Oc1ccc(S(=O)(=O)N(C)[C@@H]2CCCc3c2cnn3CC(=O)O)cc1Cl` [Example 9-26a, {(R)-4-[(3-Chloro-4-o-tolyloxy-benzenesulfonyl)-methyl-amino]-4,5,6,7-tetrahydro-indazol-1-yl}-acetic acid], the IC50 is 23.7 nM.

As for `O=C(O)CCn1ncc2c1CCCC2NS(=O)(=O)c1ccc(-c2ccccc2)cc1` (stereo not drawn) [Example 1-6a, 3-[4-(Biphenyl-4-sulfonylamino)-4,5,6,7-tetrahydro-indazol-1-yl]-propionic acid], the IC50 was determined as 475 nM.

Consider `COc1ccc(-c2cccc(S(=O)(=O)NC3CCCc4c3cnn4CC(=O)O)c2)cc1` (stereo not drawn) [Example 10-5a, [4-(4′-Methoxy-biphenyl-3-sulfonylamino)-4,5,6,7-tetrahydro-indazol-1-yl]-acetic acid], for which the IC50 came to 369 nM.

For `O=C(O)Cn1ncc2c1CCCC2NS(=O)(=O)c1ccc(-c2ccccc2)c(F)c1` (stereo not drawn) [Example 10-8a, [4-(2-Fluoro-biphenyl-4-sulfonylamino)-4,5,6,7-tetrahydro-indazol-1-yl]-acetic acid], the IC50 amounted to 412 nM.

`O=C(O)Cn1ncc2c1CCC[C@H]2NS(=O)(=O)c1cc(F)c(Oc2ccc(F)cc2)cc1Cl` [Example 5-6a, {(R)-4-[2-Chloro-5-fluoro-4-(4-fluoro-phenoxy)-benzenesulfonylamino]-4,5,6,7-tetrahydro-indazol-1-yl}-acetic acid] gave an IC50 of 52.9 nM.

`CN([C@@H]1CCCc2c1cnn2CC(=O)O)S(=O)(=O)c1ccc(Oc2ccc(Cl)cc2Cl)cc1Cl` [Example 9-8a, ((R)-4-{[2-Chloro-4-(2,4-dichloro-phenoxy)-benzenesulfonyl]-methyl-amino}-4,5,6,7-tetrahydro-indazol-1-yl)-acetic acid]: the IC50 was determined as 91.4 nM. This IC50 is about 1.7-fold higher than that of the molecule before.

The molecule `CN([C@@H]1CCCc2c1cnn2CC(=O)O)S(=O)(=O)c1ccc(Oc2ccccc2Cl)c(Cl)c1` [Example 9-1a, ((R)-4-{[3-Chloro-4-(2-chloro-phenoxy)-benzenesulfonyl]-methyl-amino}-4,5,6,7-tetrahydro-indazol-1-yl)-acetic acid] displayed an IC50 of 5.5 nM.

With `N#Cc1cccc(-c2ccc(S(=O)(=O)NC3CCCc4c3cnn4CC(=O)O)cc2)c1` (stereo not drawn) [Example 10-11a, [4-(3′-Cyano-biphenyl-4-sulfonylamino)-4,5,6,7-tetrahydro-indazol-1-yl]-acetic acid], the IC50 worked out at 321 nM.

`O=C(O)Cn1ncc2c1CCCC2NS(=O)(=O)c1ccc(-c2ccc(Cl)cc2)cc1` (stereo not drawn) [Example 10-6a, [4-(4′-Chloro-biphenyl-4-sulfonylamino)-4,5,6,7-tetrahydro-indazol-1-yl]-acetic acid] had an IC50 of 207 nM.

Take `CN([C@@H]1CCCc2c1cnn2CC(=O)O)S(=O)(=O)c1ccc(Oc2ccc(C#N)cc2)c(Cl)c1` [Example 9-34a, ((R)-4-{[3-Chloro-4-(4-cyano-phenoxy)-benzenesulfonyl]-methyl-amino}-4,5,6,7-tetrahydro-indazol-1-yl)-acetic acid]: the IC50 was determined as 4.6 nM.

In the case of `O=C(O)Cn1ncc2c1CCCC2NS(=O)(=O)c1ccc(Oc2ccccc2)cc1` (stereo not drawn) [Example 1-3a, [4-(4-Phenoxy-benzenesulfonylamino)-4,5,6,7-tetrahydro-indazol-1-yl]-acetic acid], the IC50 was 199 nM.

The molecule `CN([C@@H]1CCCc2c1cnn2CC(=O)O)S(=O)(=O)c1ccc(Oc2ccc(F)cc2Cl)cc1Cl` [Example 9-9a, ((R)-4-{[2-Chloro-4-(2-chloro-4-fluoro-phenoxy)-benzenesulfonyl]-methyl-amino}-4,5,6,7-tetrahydro-indazol-1-yl)-acetic acid] displayed an IC50 of 70 nM. Compared with the last molecule, the IC50 is about 2.8-fold lower.

Turning to `COc1ccc(Oc2ccc(S(=O)(=O)N(C)[C@@H]3CCCc4c3cnn4CC(=O)O)cc2Cl)cc1` [Example 9-31a, ((R)-4-{[3-Chloro-4-(4-methoxy-phenoxy)-benzenesulfonyl]-methyl-amino}-4,5,6,7-tetrahydro-indazol-1-yl)-acetic acid], the IC50 amounted to 6.8 nM.

On to `CN([C@@H]1CCCc2c1cnn2CC(=O)O)S(=O)(=O)c1ccc(Oc2ccc(Cl)cc2)c(Cl)c1` [Example 9-3a, ((R)-4-{[3-Chloro-4-(4-chloro-phenoxy)-benzenesulfonyl]-methyl-amino}-4,5,6,7-tetrahydro-indazol-1-yl)-acetic acid], for which the half-maximal inhibitory concentration (IC50) came to 11.1 nM.

With `O=C(O)Cn1ncc2c1CCCC2NS(=O)(=O)c1ccc(Oc2ccc(Cl)cc2)cc1` (stereo not drawn) [Example 5-3a, {4-[4-(4-Chloro-phenoxy)-benzenesulfonylamino]-4,5,6,7-tetrahydro-indazol-1-yl}-acetic acid], the half-maximal inhibitory concentration (IC50) came out at 60.6 nM.

Regarding `O=C(O)Cn1ncc2c1CCCC2NS(=O)(=O)c1ccc(-c2ccccc2C(F)(F)F)cc1` (stereo not drawn) [Example 10-17a, [4-(2′-Trifluoromethyl-biphenyl-4-sulfonylamino)-4,5,6,7-tetrahydro-indazol-1-yl]-acetic acid], the IC50 was found to be 262 nM.

In turn, `Cc1ccc(S(=O)(=O)c2cc(C(F)(F)F)cc(S(=O)(=O)N(C)[C@@H]3CCCc4c3cnn4CCC(=O)O)c2)cc1` [Example 13-6a, 3-((R)-4-{Methyl-[3-(toluene-4-sulfonyl)-5-trifluoromethyl-benzenesulfonyl]-amino}-4,5,6,7-tetrahydro-indazol-1-yl)-propionic acid] registered an IC50 of 7.8 nM.

Take `O=C(O)Cn1ncc2c1CCCC2NS(=O)(=O)c1ccc(-c2ccc(F)cc2)cc1` (stereo not drawn) [Example 10-7a, [4-(4′-Fluoro-biphenyl-4-sulfonylamino)-4,5,6,7-tetrahydro-indazol-1-yl]-acetic acid]: the IC50 came out at 300 nM.

`CN([C@@H]1CCCc2c1cnn2CC(=O)O)S(=O)(=O)c1cc(F)c(Oc2ccc(F)cc2)c(F)c1` [Example 9-39a, ((R)-4-{[3,5-Difluoro-4-(4-fluoro-phenoxy)-benzenesulfonyl]-methyl-amino}-4,5,6,7-tetrahydro-indazol-1-yl)-acetic acid] returned an IC50 of 10.4 nM.
